Consider one compound from patent US9587220B2, “Method for inducing cardiac differentiation of pluripotent stem cell” (Kyoto University, priority 2012, dated 2017).

What all share (type): cell-based, human
The test system of assay [1] is IMR90-1 hiPSCs. Put plainly: Immunostaining of cardiac, pacemaker and fibroblast markers in differentiated hiPSCs. As to the method:
Confluent hESCs and hiPSCs were gently detached with CTK solution and transferred into Petri dishes (BD Biosciences) with Primate ES Cell Culture Medium (ReproCELL, Japan). Cells were held in suspension culture for 8-24 h to form aggregates. The sizes of hPSC aggregates (0.3-1 mm in diameter) are important for efficient differentiation. Following suspension culture, cell aggregates were attached to culture dishes (3-10×10^5 cells cm^−2) in cardiac differentiation medium: IMDM (Sigma), containing 20% FBS (Gibco), 1% MEM non-essential amino acid solution (Sigma), 1% Penicillin-Streptomycin (Gibco), 2 mM L-glutamine (Sigma), 0.001% 2-Mercaptoethanol (Gibco), and 0.005N NaOH, with 10 ng ml^−1 BMP4 (R&D Systems). The medium was changed to cardiac differentiation medium with 10 μM KY02111 and/or other WNT inhibitors added on Day 3 (hiPSC lines) or Day 4 (human or monkey ESC lines); XAV939 (Wako, Japan), IWP-2 (Santa Cruz Biotechnology), IWR-1 (Merck4Bioscience), IGFBP4 (R&D Systems), Dkk1 (R&D Systems) and the mixture of bFGF (R&D Systems), BMP4 (R&D Systems), VEGF (R&D Systems), DKK1 (R&D Systems), and Activin A (R&D Systems) (Non-patent literature 16). Medium was changed every 2-3 d. KY02111 and other WNT inhibitors were added until Day 9 for hiPSC lines and the monkey ESC line, or Day 14 for hESC lines. On Day 15, cardiac cell colonies on dishes were incubated with protease solution (0.1% collagenase type I, 0.25% trypsin, 1 U ml^−1 DNase I, 116 mM NaCl, 20 mM HEPES, 12.5 mM NaH2PO4, 5.6 mM glucose, 5.4 mM KCl, and 0.8 mM MgSO4, pH 7.35) for 0.5-2 h, until all cardiac colonies were detached from the bottom of the wells. The detached cardiac colonies were transferred into 15 ml tubes with fresh cardiac differentiation medium and precipitated by gravity, and the supernatant was removed by aspiration. The cardiac colonies were then transferred into Ultra-low culture dishes (Corning, 3261) or 6-well plates (Corning, YO-01835-24) in cardiac differentiation medium without both serum and NaOH. The floating cardiac colonies were maintained for more than 1 month, and the media were changed every 5 d. A differentiation method of mouse ESC (R1 line) was carried out as previously described^46, and KY02111 was added during Days 3-6. Beating colonies were counted on Day 9.
Cardiac colonies were dissociated by stirring for 1-2 h at 37° C. with the protease solution described above, cultured for 1 d on cover glasses coated with gelatin (Sigma), and fixed with 4% paraformaldehyde. After permeabilizing with Triton X, the cells were treated with 2% skim milk for 1-2 h, then incubated with primary antibodies for 2 h: NKX2.5 (rabbit polyclonal, 1:250; Abcam), αActinin (mouse monoclonal, 1:800; Sigma), cardiac TnT (mouse monoclonal, 1:100; Santa Cruz Biotechnology), Vimentin (mouse monoclonal, 1:800; Sigma V6630), and HCN4 (mouse monoclonal, 1:400; Abcam). The secondary antibodies used were Alexa546-conjugated anti-mouse IgG, Alexa488-conjugated anti-mouse IgG, and Alexa488-conjugated anti-rabbit IgG (1:1000; all from Molecular Probes, Invitrogen). Nuclei were visualized by DAPI. Images were captured under fluorescent microscopy (Olympus). The number of cTnT, αActinin, NKX2.5, HCN4, and Vimentin-positive cells were counted from three random areas, using the Metamorph imaging system (Molecular Devices). […] Cells were analyzed using a FACS CantoII flow cytometer (BD Biosciences). Data was analyzed using FACADiva software (BD Biosciences).

In assay [2] the test system is IMR90-1 hiPSCs. Description: Number of beating colonies and total number of cardiomyocytes per well (WNT inhibitor combinations). As to conditions: total cell number x cTnT-positive ratio, FIG. 3e.
Assay [3] concerns KY02111-induced cardiomyocytes (KY-CMs). Description: qPCR of cardiac marker and ion channel genes in KY02111-induced cardiomyocytes. The following applies: Days 15 and 30. As to the method:
Total RNA was isolated with an RNeasy Mini Kit (QIAGEN). Genomic DNA was completely digested with DNase I (Invitrogen). Total RNA (0.5 μg) was subjected to cDNA synthesis using the SuperScript III Reverse Transcriptase (Invitrogen). qRT-PCR was performed in triplicate, using SYBER GREEN PCR Master Mix on a 7500 Real Time PCR System (Applied Biosystems). The cycling conditions were as follows: 10 min at 95° C.; 40 cycles, each consisting of 15 s at 95° C.; 1 min at 60° C. Total RNA from human adult heart tissue (BioChain) was used to evaluate the expression levels of cardiac marker genes for cardiomyocytes derived from hPSCs. All values were normalized with respect to GAPDH expression level and expressed relative to the corresponding values in human adult hearts (100%).
On the technique in general: Real-time PCR tracks product formation cycle by cycle.

As to `COc1ccc(CCC(=O)Nc2nc3ccc(Cl)cc3s2)cc1OC` [KY02111, 2-(3-(3,4-dimethoxyphenyl)propanamide)-6-chlorobenzothiazole], in the assay with IMR90-1 hiPSCs [1] (data not shown), the “SMA (smooth muscle marker) expression” value was “almost undetectable”. Further, in the assay with IMR90-1 hiPSCs [1] (serum-containing medium), the Vimentin-positive ratio is reported as 20% and the “cells positive for pacemaker marker HCN4” value stood at 16%. Besides, in the assay with IMR90-1 hiPSCs [1] (serum-containing medium, FIG. 10b), the cTnT-positive cells result is on record as “approximately 80%”. Further, the “decrease of ratio of Vimentin-positive cells (fibroblasts)” value in the assay with IMR90-1 hiPSCs [1] (versus DMSO) stood at 3.3 fold. Moreover, the “number of cardiomyocytes produced relative to the control” value in the assay on IMR90-1 hiPSCs [2] is 80 fold. Moreover, in assay [3], the “expression of ion channel genes in KY-CMs relative to adult heart tissue” value is given as “equivalent to those of adult heart tissue”.
